Reference: patent publication US20210198318A1, “Methods and Compositions for Treating Diseases and Conditions Associated with Gonadotropin Releasing Hormone Receptor” (The Board of Regents of the University of Oklahoma, priority 2018, published 2021)
Non-standard residues stand in square brackets, D forms with d. Residues, ends and D or L forms follow the SMILES beside them. dPhe(4-Cl) = N[C@H](Cc1ccc(Cl)cc1)C(=O)O; d2Nal = N[C@H](Cc1ccc2ccccc2c1)C(=O)O; dCit = NC(=O)NCCC[C@@H](N)C(=O)O; d3Pal = N[C@H](Cc1cccnc1)C(=O)O

Experiments:
GnRHR = biological target: T1, GnRHR (Homo sapiens, UniProt P30968); assay: GnRHR-transfected Chem-1 cell-based calcium flux assay; settings: for dosage at which the assay responds (relative Ca^2+ induced Fluo-8 NW fluorescence, % of maximal fluorescence): GnRHR-transfected cells, dosage response curve, n=4
T1 construct: host or cells: Chem-1 cells
T1 sequence (P30968 1-328): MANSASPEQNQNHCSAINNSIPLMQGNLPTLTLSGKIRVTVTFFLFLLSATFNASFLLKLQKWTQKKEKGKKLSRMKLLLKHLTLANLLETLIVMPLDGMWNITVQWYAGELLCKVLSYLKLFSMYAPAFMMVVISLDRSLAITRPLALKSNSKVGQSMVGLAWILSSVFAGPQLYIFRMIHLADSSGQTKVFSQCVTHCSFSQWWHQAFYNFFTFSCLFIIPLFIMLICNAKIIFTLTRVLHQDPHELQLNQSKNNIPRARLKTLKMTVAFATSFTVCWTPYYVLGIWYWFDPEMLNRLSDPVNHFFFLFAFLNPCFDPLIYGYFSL
Description: Cell-based GnRHR-AAb Activity Assays: Activity of GnRHR AAb in IgG purified from sera of subjects with PCOS and controls were analyzed with a GnRHR-transfected Chem-1 cell-based calcium flux assay (Eurofins Scientific, USA). Briefly, Chem-1 cells were dispensed into 96-well plates and incubated 24 h, after which assay plates were washed sufficiently with Hank's Balanced Salt Solution (HBSS) supplemented with 20 mM HEPES, 2.5 mM Probenecid at pH 7.4 to remove all trace of Media. Component. Serum-derived IgG (0.1 mg/mL) was added in the presence and absence of the non-selective GnRHR blockade. Samples were tested in triplicate. FLUO-8®, AM Ca^2+ dye (Cat No: 21080, AAT Bioquest, Inc., Sunnyvale, Calif.) was prepared by dissolving 1 mg of Fluo-8 NW in […] and applied to the assay plate (Ca^2+ dye at 10 μL/10 mL is sufficient for loading one plate). Excitation wave length was set at 470-495 nm and emission wave length at 515-565 nm for Ca^2+ dyes. Maximal fluorescence signal was obtained by HIDEX Sense reader.
Methods Summary: Infertile PCOS subjects based on Rotterdam criteria and infertile ovulatory controls seen at an academic fertility clinic 2012-2016 were included in the study if they had stored serum prior to beginning treatment. Serum was screened by ELISA for AAbs to GnRHR using a synthetic 28-mer peptide from the ECL2 and ECL 1 of human GnRHR as coating antigen. Optical density (OD) values were read at 405 nm at 60 minutes. Activity of GnRHR AAb in sera and in IgG purified from sera of 4 subjects with PCOS and 4 controls was analyzed with a GnRHR-transfected Chem-1 cell-based calcium flux assay. AAb-specific effect was tested by GnRHR blockade. Group data are presented as mean±SD or percent. Groups were compared using Student t or Pearson chi-squared tests. An ROC curve was used to assess OD as a diagnostic test for PCOS.

Abs present in the sera = assay: Mimotope PIN ELISA with sequential GnRHR-ECL2 synthetic peptides and PCOS serum; type: binding, human; settings: sera 1:200; 8-mer pins offset by two amino acids
Description: The peaks represent sites of increased binding by Abs present in the sera. The amino acid sequence for each pin is shown at the bottom. Representative PCOS with 2 dominant peaks. Each color bar represents the time of O.D. reading after addition of chromagen (30, 60, and 90 min).
A Mimotope PIN ELISA assay was performed on 11 PCOS subjects and 5 control subjects using sequential GnRHR-ECL2 synthetic peptides, each 8 amino acid residues in length, and each one different from the preceding peptide by addition of the next two C-terminal residues and removal of the last 2 N-terminal residues (see Table 1). The specific peptides were biochemically bonded to the tip of the pin that is attached to the 96 well plate cover in such a fashion that the peptides were immersed in the buffer/sera (1:200) mixture in the well. After incubation, the pins and wells were washed thoroughly, and the well mixture was then replaced by the anti-human-2nd AB (1:10,000) and incubated and washed again; the colorimetric agent was then added. The wells were sequentially counted at 10 min intervals, and values were compared for analysis of O.D. for each pin. The values and pin sequences are shown with time of reading in color code.

Compound | dosage at which the assay responds (relative Ca^2+ induced Fluo-8 NW fluorescence, % of maximal fluorescence) (GnRHR) | site of increased binding by Abs in PCOS sera (minipin ELISA peak) (Abs present in the sera) | also measured
FSQCVTHC (listed as Homo sapiens) [SEQ ID NO:8] | – | Overlapping Peak 1 | –
CC(=O)N[C@H](Cc1ccc2ccccc2c1)C(=O)N[C@H](Cc1ccc(Cl)cc1)C(=O)N[C@H](Cc1cccnc1)C(=O)N[C@@H](CO)C(=O)N[C@@H](Cc1ccc(O)cc1)C(=O)N[C@H](CCCNC(N)=O)C(=O)N[C@@H](CC(C)C)C(=O)N[C@@H](CCCNC(=N)N)C(=O)N1CCC[C@H]1C(=O)N[C@H](C)C(N)=O [cetrorelix] (Ac-[d2Nal][dPhe(4-Cl)][d3Pal]SY[dCit]LRP[dA]-NH2) | – | – | effect on GnRHR activity (relative fluorescence, % of maximum fluorescence) of PCOS subjects (GnRHR; cetrorelix 10^−5M, 2-hour exposure, samples from PCOS subjects): suppressed the relative fluorescence expressed as % of maximum fluorescence to baseline; effect on GnRHR activity (relative fluorescence, % of maximum fluorescence) of control subjects (GnRHR; cetrorelix 10^−5M, 2-hour exposure, samples from control subjects): not significantly changed
VTHCSFSQ (listed as Homo sapiens) [SEQ ID NO:6] | – | Overlapping Peak 2 | –

Continued, in another order:

dosage at which the assay responds (relative Ca^2+ induced Fluo-8 NW fluorescence, % of maximal fluorescence) (GnRHR) | Compound | site of increased binding by Abs in PCOS sera (minipin ELISA peak) (Abs present in the sera) | also measured
10^−8 M | CCNC(=O)[C@@H]1CCCN1C(=O)[C@H](CCCNC(=N)N)NC(=O)[C@H](CC(C)C)NC(=O)[C@@H](CC(C)C)NC(=O)[C@H](Cc1ccc(O)cc1)NC(=O)[C@H](CO)NC(=O)[C@H](Cc1c[nH]c2ccccc12)NC(=O)[C@H](Cc1c[nH]cn1)NC(=O)[C@@H]1CCC(=O)N1 [leuprolide] | – | total GnRHR activity of leuprolide in the presence of IgG purified from PCOS subjects versus buffer+leuprolide (GnRHR; GnRHR transfected cells, n=4, p<0.01): increased the total activity at least in an additive fashion
10^−9 M | human Leutenizing Hormone Releasing Hormone [hLHRH] | – | –
